The values below come from patent US9821072B2, “Activated neurotensin molecules and the uses thereof” (priority 2014, dated 2017).

In data set [1] the target is T1, rat neurotensin receptor type 1 (rNTR-1) (Rattus norvegicus, UniProt P20789).
T1 construct: host or cells: HEK293 cells (membrane homogenates)
The experiment in a line: Competition binding assay with [3H]-neurotensin on rat NTR-1 membranes (HEK293 cells). The note with it: read-out: NTR-1 binding affinity Ki, Rat NTR-1.

In data set [2] the test system is blood-retina barrier (BRB), eye. Also noted: species or system C57Bl/6 mice. Conditions: mouse, in vivo. As for the experimental part:
(§1) Transport kinetics at the BBB and blood-retina barrier (BRB) of the conjugates of the invention was assessed using an in situ brain perfusion technique in adult male C57Bl/6 mice. Radiolabeled activated NT compounds were obtained either by coupling [3H]Tyr3-NT with the AG or by coupling a tritiated AG to NT molecules. NT was radiolabeled by catalytic dehalogenation of iodoTyr3-NT using tritium gas while AG was radiolabeled by coupling a tritiated propionyl succinimide ester to its N-terminus. The specific radioactivity (SRA) was typically in the range of 50 Ci/mmol. The total quantity of radioactivity prepared for each synthesis was generally between 100 and 1000 μCi.
(§2) The in situ brain perfusion technique enables total control of the composition of the artificial perfusate in order to maintain the cells and vascularization of the brain under normal physiological and anatomical conditions within the animal, without the disrupting factor of systemic distribution. […]
(§3) In situ brain perfusion of the radiolabeled compounds of the invention was performed during 120 s with a perfusate flow rate of 2 mL/min. The initial transport was expressed as the transfer coefficient Kin (relationship between distribution volume of the test compound, corrected for the vascular volume, and cerebral perfusion time).

The next data set concerns BBB (brain). Also noted: species or system C57Bl/6 mice. Conditions: mouse, in vivo. As to the method: as §1, §2, §3
A short description of data set [3]: In vitro blood stability in freshly collected mouse blood (LC-MS/MS). Conditions: whole blood, 2 μM, 37° C. It is filed as in vitro ADME, Swiss (CD-1) mouse.
Data set [4] has as its target T2, human neurotensin receptor type 1 (hNTR-1) (Homo sapiens, UniProt P30989).
T2 construct: purchased PerkinElmer; host or cells: CHO cells stably expressing human NTR-1 (membrane homogenates)
The experiment in a line: Competition binding assay with [3H]-neurotensin on human NTR-1 membranes (CHO cells). The note with it: read-out: NTR-1 binding affinity Ki, Human NTR-1.

In the next data set the test system is mice. Put plainly: Tolerance / toxicity after i.v. bolus in mice (MTD, LD50). The class given is in vivo, mouse. As to the method:
NT, which is similar to that measured for compound I and compound II. […] When injected at 20 mg/kg eq. NT in mice, compound XIV was still well-tolerated with no additional safety concerns. […] NT. The Maximal Tolerated Dose (MTD) was 40 mg/kg eq. […] Given that the MED was about 0.1 mg/kg eq. NT, this pharmacodynamic/toxicity profile constitutes an excellent safety prerequisite since i) it prevents potentially lethal overdose due to exacerbated pharmacological hypothermia, and ii) using the intravenous (bolus) mode of administration, the therapeutic window, which is expressed as the fold increase between the MED and MTD, is about 400, with 4-fold security between the dose level eliciting a maximal hypothermic response and that inducing mild/non-lethal toxicity.

T1 sequence (P20789 whole entry): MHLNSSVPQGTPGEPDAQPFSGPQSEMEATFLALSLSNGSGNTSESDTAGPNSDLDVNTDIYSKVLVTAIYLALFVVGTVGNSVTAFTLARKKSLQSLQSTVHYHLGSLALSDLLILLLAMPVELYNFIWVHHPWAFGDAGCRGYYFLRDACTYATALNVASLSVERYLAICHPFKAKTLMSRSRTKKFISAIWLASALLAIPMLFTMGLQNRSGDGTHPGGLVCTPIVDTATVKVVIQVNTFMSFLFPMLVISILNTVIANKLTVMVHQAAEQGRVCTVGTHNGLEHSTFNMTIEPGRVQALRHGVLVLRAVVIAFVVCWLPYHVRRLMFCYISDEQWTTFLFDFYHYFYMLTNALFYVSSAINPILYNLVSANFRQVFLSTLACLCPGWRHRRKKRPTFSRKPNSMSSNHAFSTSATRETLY
T2 sequence (P30989 whole entry): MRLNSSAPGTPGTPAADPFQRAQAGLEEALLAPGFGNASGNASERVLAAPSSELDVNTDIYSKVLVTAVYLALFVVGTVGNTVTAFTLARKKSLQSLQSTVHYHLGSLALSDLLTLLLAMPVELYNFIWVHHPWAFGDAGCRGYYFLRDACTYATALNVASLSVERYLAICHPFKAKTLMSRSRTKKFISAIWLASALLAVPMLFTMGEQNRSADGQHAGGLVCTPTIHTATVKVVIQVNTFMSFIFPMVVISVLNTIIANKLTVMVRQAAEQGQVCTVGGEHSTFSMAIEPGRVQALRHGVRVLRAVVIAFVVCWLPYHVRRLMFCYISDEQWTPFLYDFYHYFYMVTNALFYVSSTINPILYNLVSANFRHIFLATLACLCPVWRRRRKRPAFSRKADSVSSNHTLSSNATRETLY

With `CCC(=O)N[C@@H]1CSSC[C@@H](C(=O)NCCOCCOCCOCCOCCOCCOCCC(=O)N[C@@H](CCCNC(=N)N)C(=O)N[C@@H](CCCNC(=N)N)C(=O)N2CCC[C@H]2C(=O)N[C@@H](Cc2ccc(O)cc2)C(=O)N[C@H](C(=O)N[C@@H](CC(C)C)C(=O)O)[C@@H](C)CC)NC(=O)CN(C)C(=O)[C@H](CCCNC(=N)N)NC(=O)[C@H](CC(C)C)NC(=O)[C@H](CCCNC(=N)N)NC(=O)[C@@H]2CCCCN2C(=O)[C@H](CCSC)NC1=O` [Compound XIV, Pr-cMPipRLRSarC-PEG6-RRPYIL-OH], the values for the Ki in data set [1] and in data set [4] were 1.06 ± 0.47 nM and 0.22 ± 0.06 nM, respectively. For the same compound, the “transfer coefficient Kin in the eye” value in data set [2] is 0.00033 mL/s/g. The “transfer coefficient Kin in the brain” value with BBB (brain) was found to be 0.000365 mL/s/g. Moreover, the half-life (usually the time in which the quantity being followed falls by half) in data set [3] amounted to 1.6 h. For the same compound, in the data set on mice (20 mg/kg eq. NT, mice), the tolerance result was “well-tolerated”. In the data set on mice (i.v. bolus), the “security between dose eliciting maximal hypothermic response and dose inducing mild/non-lethal toxicity” value was 4 fold. The “therapeutic window (fold increase between the MED and MTD)” value with mice (i.v. bolus) is “about 400 fold”. For the same compound, in the data set on mice (i.v. bolus, mice), the “Maximal Tolerated Dose (MTD)” value was determined as 40 mg/kg eq. NT. The “LD50 (Lethal Dose, 50%)” value with mice (i.v. bolus, mice, not reached) is more than 40 mg/kg eq. NT.
